pIC50: −log10 of the molar value.
System: A2780 cells
Experiment: In-vitro cell proliferation assay (SRB, 72 hours)
Type: cell-based
Details: Homo sapiens, A2780, 72 h, A2780 cells, 72 hours, SRB; read-out: Cell Proliferation (IC50)

| Compound | pIC50 |
| --- | --- |
| O=C(NCC1CC12CCN(C(=O)c1cn[nH]c1)CC2)c1cc2ccncc2o1 (centres unmarked) [Example 141, N-[[6-(1H-pyrazole-4-carbonyl)-6-azaspiro[2.5]octan-2-yl]methyl]furo[2,3-c]pyridine-2-carboxamide] | 5.70 |
| CS(=O)(=O)N1CCC(CC(=O)N2CCC3(CC2)CC3CNC(=O)c2cc3ccncc3o2)CC1 (centres unmarked) [Example 142, N-[[6-[2-(1-methylsulfonyl-4-piperidyl)acetyl]-6-azaspiro[2.5]octan-2-yl]methyl]furo[2,3-c]pyridine-2-carboxamide] | 7.01 |
| CN1CCOC(C(=O)N2CCC3(CC2)CC3CNC(=O)c2cc3ccncc3o2)C1 (centres unmarked) [Example 143, N-[[6-(4-methylmorpholine-2-carbonyl)-6-azaspiro[2.5]octan-2-yl]methyl]furo[2,3-c]pyridine-2-carboxamide] | 5.70 |
| CC(C)C(=O)N1CC(C(=O)N2CCC3(CC2)CC3CNC(=O)c2cc3ccncc3o2)C1 (centres unmarked) [Example 144, N-[[6-[1-(2-methylpropanoyl)azetidine-3-carbonyl]-6-azaspiro[2.5]octan-2-yl]methyl]furo[2,3-c]pyridine-2-carboxamide] | 6.43 |
| CC(=O)N1CC(C(=O)N2CCC3(CC2)CC3CNC(=O)c2cc3ccncc3o2)C1 (centres unmarked) [Example 145, N-[[6-(1-acetylazetidine-3-carbonyl)-6-azaspiro[2.5]octan-2-yl]methyl]furo[2,3-c]pyridine-2-carboxamide] | 5.70 |
| O=C(NCC1CC12CCN(C(=O)C1CCN(c3cccnn3)C1)CC2)c1cc2ccncc2o1 (centres unmarked) [Example 146, N-[[6-(1-pyridazin-3-ylpyrrolidine-3-carbonyl)-6-azaspiro[2.5]octan-2-yl)methyl]furo[2,3-c]pyridine-2-carboxamide] | 7.13 |

Second part, the compound after the results:

| pIC50 | Compound |
| --- | --- |
| 7.13 | O=C(NCC1CC12CCN(C(=O)CC1CCN(c3ncccn3)CC1)CC2)c1cc2ccncc2o1 (centres unmarked) [Example 147, N-[[6-[2-(1-pyrimidin-2-yl-4-piperidyl)acetyl]-6-azaspiro[2.5]octan-2-yl]methyl]furo[2,3-c]pyridine-2-carboxamide] |
| 6.99 | CC(C)N1CCC(CC(=O)N2CCC3(CC2)CC3CNC(=O)c2cc3ccncc3o2)CC1 (centres unmarked) [Example 148, N-[[6-[2-(1-isopropyl-4-piperidyl)acetyl]-6-azaspiro[2.5]octan-2-yl]methyl]furo[2,3-c]pyridine-2-carboxamide] |
| 6.30 | CN1CCC(CC(=O)N2CCC3(CC2)CC3CNC(=O)c2cc3ccncc3o2)CC1 (centres unmarked) [Example 149, N-[(6-[2-(1-methyl-4-piperidyl)acetyl]-6-azaspiro[2.5]octan-2-yl]methyl]furo[2,3-c]pyridine-2-carboxamide] |
| 6.58 | CC1(CC(=O)N2CCC3(CC2)CC3CNC(=O)c2cc3cnccc3[nH]2)COC1 (centres unmarked) [Example 150, N-([6-[2-(3-methyloxetan-3-yl)acetyl]-6-azaspiro[2.5]octan-1-yl]methyl)-1H-pyrrolo[3,2-c]pyridine-2-carboxamide] |
| 6.58 | N#Cc1ccccc1CC(=O)N1CCC2(CC1)CC2CNC(=O)c1cc2ccncc2o1 (centres unmarked) [Example 152, N-[[6-[2-(2-cyanophenyl)acetyl]-6-azaspiro[2.5]octan-2-yl]methyl]furo[2,3-c]pyridine-2-carboxamide] |
| 5.70 | COCCC(=O)N1CCC2(CC1)CC2CNC(=O)c1cc2ccncc2o1 (centres unmarked) [Example 153, N-[[6-(3-methoxypropanoyl)-6-azaspiro[2.5]octan-2-yl]methyl]furo[2,3-c]pyridine-2-carboxamide] |
| 5.58 | O=C(NCC1CC12CCN(C(=O)Cc1ccc(S(=O)(=O)C(F)(F)F)cc1)CC2)c1cc2ccncc2o1 (centres unmarked) [Example 154, N-[[6-[2-[4-(trifluoromethylsulfonyl)phenyl]acetyl]-6-azaspiro[2.5]octan-2-yl]methyl]furo[2,3-c]pyridine-2-carboxamide] |
| 5.70 | CC(=O)N(C)CCC(=O)N1CCC2(CC1)CC2CNC(=O)c1cc2ccncc2o1 (centres unmarked) [Example 155, N-[[6-[3-[acetyl(methyl]amino]propanoyl]-6-azaspiro[2.5]octan-2-yl]methyl]furo[2,3-c]pyridine-2-carboxamide] |
